According to patent US20240327354A1, “GRAM-NEGATIVE BACTERIA EFFLUX PUMP INHIBITORS” (INSTITUT NATIONAL DE LA SANTÉ ET DE LA RECHERCHE MÉDICALE, priority 2021, published 2024):
pEC50: −log10 of the molar value. Where a name gives a salt, the structure may show the parent alone.

Key:
E. coli BW25113 = assay: Assay 1: growth inhibition of E. coli by sub-inhibitory pyridomycin in combination with examples (resazurin reduction); assay type: cell-based, Escherichia coli; details: read-out: EC50 on E. coli with 8 μg/mL of pyridomycin, 8 μg/mL pyridomycin, 5 h, 37° C.
Description: (§1) Escherichia coli BW25113 (CGSC 7636) and its derivatives E. coli ΔtolC (JW5503-1, ΔtolC732::kan, CGSC 11430), E. coli ΔacrA (JW0452-3, ΔacrA748::kan, CGSC 11843) and E. coli ΔacrB (JW0451-2, ΔacrB747::kan, CGSC 8609) were obtained from E. coli Genetic Stock Center (CGSC, New Haven, Connecticut) and originated from the Keio Collection (Baba T et al, Mol Sys Biol, 2006). Klebsiella pneumoniae (LMG 2095/ATCC 13883) and K. pneumoniae (ATCC43816), Pseudomonas aeruginosa (PAO1), Acinetobacter baumannii (LMG 1025, ATCC 17978), were obtained from ATCC or BCCM/LMG Bacteria Collection. All bacteria were grown and tested in cation-adjusted Mueller-Hinton broth (CAMHB; BD Difco) at 37° C. For conservation, log phase bacteria were frozen (−80° C.) in CAMHB supplemented with 15% glycerol.
Briefly, E. coli BW25113 were diluted from frozen or growing stocks to an OD600 of 0.0004-0.001 in CAMHB. […] E. coli BW25113 viability was evaluated using the resazurin reduction assay, and measured by fluorescence (POLARstar Omega, BMG Labtech: Ex: 530 nm Em: 590 nm). EC50 were defined as the compound concentration that prevented 50% of resazurin turnover compared to the non-treated bacteria.

[1] = test system: A. baumannii LMG 1025 (ATCC 17978); assay: Assay 2: growth inhibition of A. baumannii by sub-inhibitory chloramphenicol in combination with examples (resazurin reduction); assay type: cell-based, Acinetobacter baumannii; details: read-out: EC90 on A. baumannii with 10 μg/mL of chloramphenicol, 10 μg/mL chloramphenicol, 5 h or 24 h, 37° C.
Description: as §1
Measurement of Growth Inhibition of A. baumannii Strains by Sub Inhibitory Concentrations of Chloramphenicol in Combination with Examples 1-137
For the evaluation of the dose dependent activity of examples 1-137, their ability to boost the antibacterial activity of sub-inhibitory concentrations chloramphenicol was determined. Briefly, A. baumannii LMG 1025 (ATCC 17978) were diluted from frozen or growing stocks to an OD600 of 0.001 in CAMHB. The bacterial suspension was then used as such (no-antibiotic control to evaluate EPI activity), or spiked with chloramphenicol at a final concentration of 10 μg/mL. Bacteria were then added to microplates carrying serial dilutions of the compounds examples 1-137, and incubated for (5 h or 24 h, 37° C.). Bacterial viability was evaluated using the resazurin reduction assay, and measured by fluorescence (POLARstar Omega, BMG Labtech: Ex: 530 nm Em: 590 nm). […] were defined as the compound concentration that prevented 90% of resazurin turnover compared to the non-treated bacteria.

SMILES | pEC50 (E. coli BW25113) | EC90 [1] [µM]
FC(F)(F)c1cnc(N2CCCNCC2)c(Cl)c1 [Example 6, 1-[3-chloro-5-(trifluoromethyl)-2-pyridyl]-1,4-diazepane] | 3.30 to 4.00 | 100 to 500
Brc1cnc(N2CCCNCC2)c2ccccc12 [Example 8, 4-bromo-1-(1,4-diazepan-1-yl)isoquinoline] | 4.00 to 5.30 | 5 to 100
CCN1CCN(c2nc3ccccc3nc2Cl)CC1 [Example 9, 2-chloro-3-(4-ethylpiperazin-1-yl)quinoxaline;hydrochloride] | 4.00 to 5.30 | 100 to 500
Clc1cc2ccccc2nc1N1CCCNCC1 [Example 11, 3-chloro-2-(1,4-diazepan-1-yl)quinoline] | 4.00 to 5.30 | 100 to 500
FC(F)(F)c1cnc(N2CCNCC2)c(Cl)c1 [Example 14, 1-[3-chloro-5-(trifluoromethyl)-2-pyridyl]piperazine; hydrochloride] | 4.00 to 5.30 | 100 to 500
FC(F)(F)c1cnc(N2CC3CC2CN3)c(Cl)c1 [Example 15, (1S,4S)-2-[3-chloro-5-(trifluoromethyl)-2-pyridyl]-2,5-diazabicyclo[2.2.1]heptane;formic acid] | 3.30 to 4.00 | 100 to 500
FC(F)(F)c1cnc(N[C@H]2[C@@H]3CNC[C@@H]32)c(Cl)c1 [Example 16, (1R,5S)-N-[3-chloro-5-(trifluoromethyl)-2-pyridyl]-3-azabicyclo[3.1.0]hexan-6-amine;formic acid] | – | 100 to 500
FC(F)(F)c1cnc(N2CCNCC2)c(Br)c1 [Example 17, 1-[3-bromo-5-(trifluoromethyl)-2-pyridyl]piperazine; hydrochloride] | 4.00 to 5.30 | 100 to 500
FC(F)(F)c1ccc(N2CCNCC2)c(Cl)c1 [Example 20, 1-[2-chloro-4-(trifluoromethyl)phenyl]piperazine; hydrochloride] | 4.00 to 5.30 | 100 to 500
FC(F)(F)c1cc(I)cnc1N1CCNCC1 [Example 21, 1-[5-iodo-3-(trifluoromethyl)-2-pyridyl]piperazine; hydrochloride] | 4.00 to 5.30 | 100 to 500
O=C(OCc1ccccc1)c1cnc(N2CCNCC2)c(Cl)c1 [Example 22, benzyl 5-chloro-6-piperazin-1-yl-pyridine-3-carboxylate;hydrochloride] | 4.00 to 5.30 | 100 to 500
O=C(OCCCc1ccccc1)c1cnc(N2CCNCC2)c(Cl)c1 [Example 23, 3-phenylpropyl 5-chloro-6-piperazin-1-yl-pyridine-3-carboxylate;hydrochloride] | 3.30 to 4.00 | 100 to 500
Cc1ccc(COC(=O)c2cnc(N3CCNCC3)c(Cl)c2)cc1 [Example 24, p-tolylmethyl 5-chloro-6-piperazin-1-yl-pyridine-3-carboxylate;hydrochloride] | 4.00 to 5.30 | 100 to 500
O=C(OCc1ccc(Cl)cc1)c1cnc(N2CCNCC2)c(Cl)c1 [Example 25, (4-chlorophenyl)methyl 5-chloro-6-piperazin-1-yl-pyridine-3-carboxylate;hydrochloride] | 4.00 to 5.30 | 100 to 500
O=C(OCCc1ccc(Cl)cc1)c1cnc(N2CCNCC2)c(Cl)c1 [Example 26, 2-(4-chlorophenyl)ethyl 5-chloro-6-piperazin-1-yl-pyridine-3-carboxylate;hydrochloride] | 3.30 to 4.00 | 100 to 500
O=C(OCCCc1ccc(Cl)cc1)c1cnc(N2CCNCC2)c(Cl)c1 [Example 27, 3-(4-chlorophenyl)propyl 5-chloro-6-piperazin-1-yl-pyridine-3-carboxylate;hydrochloride] | 3.30 to 4.00 | 100 to 500
Clc1nc2ccccc2nc1N[C@H]1[C@@H]2CNC[C@@H]21 [Example 51, N-[(1R,5S)-3-azabicyclo[3.1.0]hexan-6-yl]-3-chloro-quinoxalin-2-amine;hydrochloride] | – | 100 to 500
Clc1cc2ccccc2nc1N[C@H]1[C@@H]2CNC[C@@H]21 [Example 57, N-[(1R,5S)-3-azabicyclo[3.1.0]hexan-6-yl]-3-chloro-quinolin-2-amine;hydrochloride] | – | 100 to 500
